Measurements from patent publication US8114895B2, “Use of bipyridine compound ‘Caerulomycin A’ derivatives and analogs thereof as immunosuppressive agents” (Council of Science and Industrial Research, priority 2005, dated 2012).
“Also recorded” adds a separate entry of the source.

Legend:
Th1 cells (3DO.54.8) = assay: Proliferation of Th1 cells; assay type: cell-based; settings: anti-CD3 Ab 10 μg/ml; 24 h
Experimental: Th1 cells (1×10^4 cells/well) were stimulated with anti-CD3 Ab (10 μg/ml) and different doses Caerulomycin A. After 24 h, [^3H]-thymidine was added, and its incorporation was measured 8 h later.

[1] = Funk and Divekar 1959; cited from earlier work
[2] = tested on: BALB/c splenocytes (responder cells) and γ-irradiated C57BL/6J splenocytes (stimulator cells); assay: Mixed lymphocyte reaction (MLR), [3H]-thymidine incorporation; assay type: cell-based, mice
Experimental: The MLR was performed in 96-well tissue culture plates, with each well containing 4×10^5 BALB/c splenocytes (responder cells) and 4×10^5 γ-irradiated (3000R) C57BL/6J splenocytes (stimulator cells) in 200 μl RPMI/FCS-10% medium and with various concentrations of Caerulomycin A (1-0.0125 μg/ml) and Cyclosporin A (0.0125-10 μg/ml). The control cultures consisting of BALB/c splenocytes in medium alone, γ-irradiated C57BL/6J splenocytes and BALB/c splenocytes+γ-irradiated C57BL/6J splenocytes were also kept. After 4 days, the cultures were pulsed with 1 μCi of [^3H]-thymidine and harvested 16 h later by a Skatron cell harvester. Radioactivity incorporated was measured by liquid scintillation counting and data expressed as mean counts per minute (cpm).
Examples establishing the role of Caerulomycin A [isolated from a novel species of Actinoalloteichus] in inducing immunosuppression based on the following: • Splenocytes of BALB/c mice were stimulated with either ConA (1 μg/ml and 2 μg/ml) or LPS (5 μg/ml and 10 μg/ml) and were cultured with different concentrations of Caerulomycin A (0.0003-0.1 μg/ml). […] Radioactivity incorporated was measured by liquid scintillation counting. • Antigen ovalbumin (100 μg/ml) emulsified in Freund's complete adjuvant was injected in a group consisting of 5 BALB/c mice. […] Radioactivity incorporated was measured by liquid scintillation. […]

OVA-specific T cells = assay: Cytokine secretion by OVA-primed splenocytes (ELISA); assay type: cell-based, BALB/c mice; settings: OVA 200 μg/ml, supernatants after 48 h
Experimental: OVA (2 mg/ml) was dissolved in PBS (0.01 M, pH 7.2) and emulsified in Freund's complete adjuvant (FCA). Emulsion (100 μl) was then injected intraperitoneally in a group consisting of 5 BALB/c mice. The control group was injected with PBS alone. After seven days, mice were sacrificed and splenocytes were pooled and used for proliferation and cytokine assays. Splenocytes (5×10^5 cells/well) were cultured with OVA (200 μg/ml) in 200 μl RPMI/FCS-10% medium and with various concentrations of Caerulomycin A (0.0003-0.1 μg/ml). The control cultures consisting of splenocytes incubated with different concentrations of Caerulomycin A (no OVA), OVA and medium were also kept. The culture supernatants were collected after 48 h and cytokines were measured by ELISA.

## COc1cc(/C=N/O)nc(-c2ccccn2)c1 [Caerulomycin A, (E)-4-methoxy-2,2′-bipyridine-6-carbaldehyde oxime]
Th1 cells (3DO.54.8)
  proliferation of Th1 cells: inhibited the proliferation
[1]
  antibacterial activity: mild antibacterial activity
  antifungal activity: strong antifungal activity
[2]; Caerulomycin A 1-0.0125 μg/ml, Cyclosporin A 0.0125-10 μg/ml, 4 days
  MLR reaction (proliferation): dose dependent inhibition; also recorded: substantially reduced the MLR reaction
[2]; similar amount of inhibition of proliferation at a lesser dose than CsA
  potency in inhibiting MLR relative to Cyclosporin A (CsA): 10 fold
OVA-specific T cells; Caerulomycin A 0.05-0.1 μg/ml
  secretion of IFN-γ: significantly suppressed the secretion
OVA-specific T cells
  production of IL-10: failed to induce any change
